In patent US20240425517A1, “NOVEL COMPOUND FOR DEGRADATION OF TARGET PROTEIN OR POLYPEPTIDE BY POLYUBIQUITINATION” (PRAZER THERAPEUTICS INC., priority 2021, published 2024):

Target: T1, BRD4 proteins (Homo sapiens, UniProt O60885)
T1 construct: endogenous in cells; host or cells: MM.1S
Assay: Degradation of BRD4 protein in MM.1S cell lines (Western blot densitometry)
Type: cell-based
Details: MM.1S cells, 10 μM, 24 hours
Protocol: To confirm that the compounds (BRD4 degraders) of Preparation Examples I′ to IV′ reduce the amount of BRD4 proteins, experiments were performed using MM.1S cell lines, which are B cells derived from the blood of multiple myeloma patients.
Specifically, the MM.1S cells were cultured in RPMI-1640 medium supplemented with 10% fetal bovine serum and Penicillin/Streptomycin (100 U/mL), transferred to a 6-well plate, and after 24 hours, the BRD4 degraders were diluted in the culture medium and the cells were treated with 10 μM each. After treatment, the cells were incubated in a C02 incubator for 24 hours. Through protein immunoblotting (Western Blot), the degrading capacity of each compound against BRD4 proteins in cells was confirmed. After cell culture was completed according to the experimental conditions, the cells were collected and centrifuged at 1,800 rpm for 3 minutes. The cells in the precipitate were lysed with RIPA (25 mM Tris-HCl pH 7.6, 150 mM NaCl, 1% NP-40, 1% sodium deoxycholate, 0.1% SDS, 1× Protease Inhibitor Cocktail), 5× sample buffer was added, and then heated at 100° C. for 15 minutes. The prepared sample was electrophoresed with sodium dodecyl sulfate poly acrylamide gel electrophoresis (SDS-PAGE), and then the proteins in the gel were transferred to a PVDF membrane using Trans-Blot Turbo. The membrane was treated with a 5% bovine serum albumin (BSA) solution and blocked at room temperature for 2 hours, and then BRD4 and R-actin antibodies were diluted in the 5% BSA solution to react with the membrane at 4° C. overnight. After washed with PBST (0.5% Tween20) 5 times, horse radish peroxidase (HRP)-conjugated secondary antibodies were diluted in PBST to react at room temperature for 2 hours, and then washed again with a PBST solution 5 times. After enzyme-substrate reaction was carried out using a HRP substrate, a signal was measured with chemi-doc equipment, and the densitometry of a band corresponding to the BRD4 protein detected in the Preparation Example Compounds was quantitatively analyzed. The case when the degrading capacity of each BRD4 degrader was reduced by less than 40% is indicated as +, the case when the degrading capacity was reduced by 40% to 70% (exclusive of 70) is indicated as ++, the case when the degrading capacity was reduced by 70% or more is indicated as +++ in Tables 16 to 19 below. As shown in the following Tables, it was confirmed that the compounds of Preparation Examples I′ to IV′ according to the present invention have excellent degrading capacity.

SMILES	BRD4 degrading capacity (%)
Cc1sc2c(c1C)C(c1ccc(Cl)cc1)=N[C@@H](CC(=O)NCCCC(=O)Nc1ccc(C#CCN)cc1)c1nnc(C)n1-2.Cl [4-162′, (S)—N-(4-(3-aminoprop-1-yn-1-yl)phenyl)-4-(2-(4-(4-chlorophenyl)-2,3,9-trimethyl-6H-thieno[3,2-f][1,2,4]triazolo[4,3-a][1,4]diazepin-6-yl)acetamido)butanamide hydrochloride]	+++ (the degrading capacity was reduced by 70% or more)
Cc1sc2c(c1C)C(c1ccc(Cl)cc1)=N[C@@H](CC(=O)NCCCCC(=O)Nc1ccc(C#CCN)cc1)c1nnc(C)n1-2.Cl [4-163′, (S)—N-(4-(3-aminoprop-1-yn-1-yl)phenyl)-5-(2-(4-(4-chlorophenyl)-2,3,9-trimethyl-6H-thieno[3,2-f][1,2,4]triazolo[4,3-a][1,4]diazepin-6-yl)acetamido)pentanamide hydrochloride]	+++ (the degrading capacity was reduced by 70% or more)
Cc1sc2c(c1C)C(c1ccc(Cl)cc1)=N[C@@H](CC(=O)NCCCCC(=O)Nc1cccc(C#CCN)c1)c1nnc(C)n1-2.Cl [4-164′, (S)—N-(3-(3-aminoprop-1-yn-1-yl)phenyl)-5-(2-(4-(4-chlorophenyl)-2,3,9-trimethyl-6H-thieno[3,2-f][1,2,4]triazolo[4,3-a][1,4]diazepin-6-yl)acetamido)pentanamide hydrochloride]	++ (the degrading capacity was reduced by 40% to 70% (exclusive of 70))
Cc1sc2c(c1C)C(c1ccc(Cl)cc1)=N[C@@H](CC(=O)NCCCCCC(=O)Nc1ccc(C#CCN)cc1)c1nnc(C)n1-2.Cl [4-165′, (S)—N-(4-(3-aminoprop-1-yn-1-yl)phenyl)-6-(2-(4-(4-chlorophenyl)-2,3,9-trimethyl-6H-thieno[3,2-f][1,2,4]triazolo[4,3-a][1,4]diazepin-6-yl)acetamido)hexanamide hydrochloride]	+++ (the degrading capacity was reduced by 70% or more)
Cc1sc2c(c1C)C(c1ccc(Cl)cc1)=N[C@@H](CC(=O)NCCCNC(=O)c1ccc(C#CCN)o1)c1nnc(C)n1-2.Cl [4-166′]	+++ (the degrading capacity was reduced by 70% or more)
Cc1sc2c(c1C)C(c1ccc(Cl)cc1)=N[C@@H](CC(=O)NCCCCCNC(=O)c1ccc(C#CCN)o1)c1nnc(C)n1-2.Cl [4-167′, (S)-5-(3-aminoprop-1-yn-1-yl)-N-(5-(2-(4-(4-chlorophenyl)-2,3,9-trimethyl-6H-thieno[3,2-f][1,2,4]triazolo[4,3-a][1,4]diazepin-6-yl)acetamido)pentyl)furan-2-carboxamide hydrochloride]	++ (the degrading capacity was reduced by 40% to 70% (exclusive of 70))
Cc1sc2c(c1C)C(c1ccc(Cl)cc1)=N[C@@H](CC(=O)NCC#Cc1ccc(C#CCN)nc1)c1nnc(C)n1-2.Cl [4-179′, (S)—N-(3-(6-(3-aminoprop-1-yn-1-yl)pyridin-3-yl)prop-2-yn-1-yl)-2-(4-(4-chlorophenyl)-2,3,9-trimethyl-6H-thieno[3,2-f][1,2,4]triazolo[4,3-a][1,4]diazepin-6-yl)acetamide hydrochloride]	+ (the degrading capacity of each BRD4 degrader was reduced by less than 40%)
Cc1sc2c(c1C)C(c1ccc(Cl)cc1)=N[C@@H](CC(=O)NCC#Cc1ccc(C#CCON)s1)c1nnc(C)n1-2.Cl [4-223′, (S)—N-(3-(5-(3-(aminooxy)prop-1-yn-1-yl)thiophen-2-yl)prop-2-yn-1-yl)-2-(4-(4-chlorophenyl)-2,3,9-trimethyl-6H-thieno[3,2-f][1,2,4]triazolo[4,3-a][1,4]diazepin-6-yl)acetamide hydrochloride]	++ (the degrading capacity was reduced by 40% to 70% (exclusive of 70))
Cc1sc2c(c1C)C(c1ccc(Cl)cc1)=N[C@@H](CC(=O)NCCCCCCCCCNC(=O)c1ccc(C#CCN)o1)c1nnc(C)n1-2.Cl [4-225′, (S)-5-(3-aminoprop-1-yn-1-yl)-N-(9-(2-(4-(4-chlorophenyl)-2,3,9-trimethyl-6H-thieno[3,2-f][1,2,4]triazolo[4,3-a][1,4]diazepin-6-yl)acetamido)nonyl)furan-2-carboxamide hydrochloride]	+++ (the degrading capacity was reduced by 70% or more)
Cc1sc2c(c1C)C(c1ccc(Cl)cc1)=N[C@@H](CC(=O)N1CCN(c3ccc(C#CCN)cc3)CC1)c1nnc(C)n1-2.Cl [4-226′, (S)-1-(4-(4-(3-aminoprop-1-yn-1-yl)phenyl)piperazin-1-yl)-2-(4-(4-chlorophenyl)-2,3,9-trimethyl-6H-thieno[3,2-f][1,2,4]triazolo[4,3-a][1,4]diazepin-6-yl)ethan-1-one hydrochloride]	+++ (the degrading capacity was reduced by 70% or more)
Cc1sc2c(c1C)C(c1ccc(Cl)cc1)=N[C@@H](CC(=O)N1CCN(C(=O)c3ccc(C#CCN)o3)CC1)c1nnc(C)n1-2.Cl [4-227′, (S)-1-(4-(5-(3-aminoprop-1-yn-1-yl)furan-2-carbonyl)piperazin-1-yl)-2-(4-(4-chlorophenyl)-2,3,9-trimethyl-6H-thieno[3,2-f][1,2,4]triazolo[4,3-a][1,4]diazepin-6-yl)ethan-1-one hydrochloride]	++ (the degrading capacity was reduced by 40% to 70% (exclusive of 70))
COC(=O)c1ccc(NC(=O)CCCNC(=O)C[C@@H]2N=C(c3ccc(Cl)cc3)c3c(sc(C)c3C)-n3c(C)nnc32)cc1C#CCN.Cl [4-228′]	+++ (the degrading capacity was reduced by 70% or more)
Cc1sc2c(c1C)C(c1ccc(Cl)cc1)=N[C@@H](CC(=O)NCCCCCCCCNC(=O)c1ccc(C#CCN)o1)c1nnc(C)n1-2.Cl [4-235′]	++ (the degrading capacity was reduced by 40% to 70% (exclusive of 70))
CCOC(=O)c1ccc(NC(=O)CCCNC(=O)C[C@@H]2N=C(c3ccc(Cl)cc3)c3c(sc(C)c3C)-n3c(C)nnc32)cc1C#CCN.Cl [5-1′, ethyl (S)-2-(3-aminoprop-1-yn-1-yl)-4-(4-(2-(4-(4-chlorophenyl)-2,3,9-trimethyl-6H-thieno[3,2-f][1,2,4]triazolo[4,3-a][1,4]diazepin-6-yl)acetamido)butanamido)benzoate hydrochloride]	+++ (the degrading capacity was reduced by 70% or more)
Cc1sc2c(c1C)C(c1ccc(Cl)cc1)=N[C@@H](CC(=O)NCCCC(=O)Nc1ccc(C(=O)OC(C)C)c(C#CCN)c1)c1nnc(C)n1-2.Cl [5-2′, isopropyl (S)-2-(3-aminoprop-1-yn-1-yl)-4-(4-(2-(4-(4-chlorophenyl)-2,3,9-trimethyl-6H-thieno[3,2-f][1,2,4]triazolo[4,3-a][1,4]diazepin-6-yl)acetamido)butanamido)benzoate hydrochloride]	++ (the degrading capacity was reduced by 40% to 70% (exclusive of 70))
COC(=O)c1ccc(NC(=O)CCNC(=O)C[C@@H]2N=C(c3ccc(Cl)cc3)c3c(sc(C)c3C)-n3c(C)nnc32)cc1C#CCN.Cl [5-4′, methyl (S)-2-(3-aminoprop-1-yn-1-yl)-4-(3-(2-(4-(4-chlorophenyl)-2,3,9-trimethyl-6H-thieno[3,2-f][1,2,4]triazolo[4,3-a][1,4]diazepin-6-yl)acetamido)propanamido)benzoate hydrochloride]	++ (the degrading capacity was reduced by 40% to 70% (exclusive of 70))
COC(=O)c1ccc(NC(=O)CCCCNC(=O)C[C@@H]2N=C(c3ccc(Cl)cc3)c3c(sc(C)c3C)-n3c(C)nnc32)cc1C#CCN.Cl [5-5′, methyl (S)-2-(3-aminoprop-1-yn-1-yl)-4-(5-(2-(4-(4-chlorophenyl)-2,3,9-trimethyl-6H-thieno[3,2-f][1,2,4]triazolo[4,3-a][1,4]diazepin-6-yl)acetamido)pentanamido)benzoate hydrochloride]	++ (the degrading capacity was reduced by 40% to 70% (exclusive of 70))
COC(=O)c1ccc(NC(=O)CCCCCNC(=O)C[C@@H]2N=C(c3ccc(Cl)cc3)c3c(sc(C)c3C)-n3c(C)nnc32)cc1C#CCN.Cl [5-6′, methyl (S)-2-(3-aminoprop-1-yn-1-yl)-4-(6-(2-(4-(4-chlorophenyl)-2,3,9-trimethyl-6H-thieno[3,2-f][1,2,4]triazolo[4,3-a][1,4]diazepin-6-yl)acetamido)hexanamido)benzoate hydrochloride]	++ (the degrading capacity was reduced by 40% to 70% (exclusive of 70))
